Test results reported in patent US11542210B2, “Method of producing a monoammonium phosphate containing fertilizer solution” (Liquigro Holdings (Proprietary) Limited, priority 2016, dated 2023).

System: Maize
Test: Crop application - vegetative growth (maize): spray application, damage to the plants
Format: in vivo
Text: When using MAP technical, it is only possible to spray a maximum of 1 kg P per ha before damage is inflicted on the plants.

SMILES: N.O=P(O)(O)O [MAP technical, monoammonium phosphate (technical)]
- maximum that can be sprayed before damage is inflicted on the plants: ≤ 1 kg P per ha
